The results in this text go back to ChEMBL document CHEMBL3259622, “Enhancing a CH-π Interaction to Increase the Affinity for 5-HT1A Receptors” (ACS Med Chem Lett, 2014).

Assay [1] deals with T1, 5-hydroxytryptamine receptor 1A (Homo sapiens) (UniProt P08908).
T1 sequence (whole entry): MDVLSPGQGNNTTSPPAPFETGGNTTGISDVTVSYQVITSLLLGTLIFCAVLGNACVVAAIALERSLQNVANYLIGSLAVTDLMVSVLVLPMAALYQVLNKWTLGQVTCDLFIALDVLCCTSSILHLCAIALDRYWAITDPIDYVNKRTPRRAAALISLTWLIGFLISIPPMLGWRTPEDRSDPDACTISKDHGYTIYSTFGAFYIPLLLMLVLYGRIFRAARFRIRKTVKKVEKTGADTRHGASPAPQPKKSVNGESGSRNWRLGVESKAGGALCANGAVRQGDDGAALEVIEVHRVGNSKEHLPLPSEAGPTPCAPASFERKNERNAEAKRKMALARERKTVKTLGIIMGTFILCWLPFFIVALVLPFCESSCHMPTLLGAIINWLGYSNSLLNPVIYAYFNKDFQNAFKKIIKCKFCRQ
Nature of the assay: Displacement of [3H]-[…] from human recombinant 5HT1A receptor expressed in CHO cells assessed as residual activity at 1 uM after 60 mins by liquid scintillation counting analysis. The format is cell-based. (Displacement assays read how much labelled ligand stays bound in the presence of the test substance.)

The target of assay [2] is T2, 5-hydroxytryptamine receptor 1A (Homo sapiens, UniProt P08908).
T2 sequence (P08908 whole entry): T1 sequence (whole entry)
Briefly: Displacement of [3H]-[…] from human recombinant 5HT1A receptor expressed in CHO cells after 60 mins by liquid scintillation counting analysis. The format is cell-based.

The target in assay [3] is T3, 5-hydroxytryptamine receptor 1A (Rattus norvegicus, UniProt P19327).
T3 sequence (P19327 whole entry): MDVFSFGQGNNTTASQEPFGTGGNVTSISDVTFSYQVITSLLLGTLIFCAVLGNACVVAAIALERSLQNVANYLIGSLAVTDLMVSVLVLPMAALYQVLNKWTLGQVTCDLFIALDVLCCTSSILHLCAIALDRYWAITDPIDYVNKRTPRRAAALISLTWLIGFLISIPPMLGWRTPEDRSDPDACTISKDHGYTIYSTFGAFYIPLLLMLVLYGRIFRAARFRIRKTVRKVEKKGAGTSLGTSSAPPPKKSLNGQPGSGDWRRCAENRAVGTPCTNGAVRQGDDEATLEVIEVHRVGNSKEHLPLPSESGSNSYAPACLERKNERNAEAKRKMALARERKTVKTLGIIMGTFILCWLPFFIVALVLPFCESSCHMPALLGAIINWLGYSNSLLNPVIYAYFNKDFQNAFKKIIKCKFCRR
Nature of the assay: Agonist activity at Wistar rat brain 5HT1A receptor assessed as inhibition of firing rate of dorsal raphe nucleus by electrophysiological analysis. The format is tissue-based.

Assay [4] addresses T4, 5-hydroxytryptamine receptor 1A (Rattus norvegicus) (UniProt P19327).
T4 sequence (whole entry): T3 sequence (P19327 whole entry)
Briefly: Agonist activity at Wistar rat brain 5HT1A receptor assessed as inhibition of firing rate of dorsal raphe nucleus by electrophysiological analysis in presence of WAY-100635. The format is tissue-based.

The source made the active and inactive calls. The calls are words filed in the database; no cut-off is given here.

`O=C1c2ccccc2C(=O)N1CCN1CCN(c2ccccc2)CC1`: the Activity in assay [1] is 82%. A word on the Ki: it is the equilibrium dissociation constant of an inhibitor or competing ligand from its target. What is called IC50 is the point on the concentration scale where inhibition reaches its midpoint. As to `O=C(NCCN1CCN(c2ccccc2)CC1)c1cnc2ccccc2n1`, the inhibition constant Ki in assay [2] amounted to 30 nM. Further, the IC50 in assay [3] is 1680 nM. For the same molecule, the inhibition entry in assay [4] was “inactive”. For the molecule `Cc1cc(C)cc(N2CCN(CCNC(=O)c3cnc4ccccc4n3)CC2)c1`, the inhibition constant (Ki) in assay [2] worked out at 3.67 nM. Further, the IC50 in assay [3] turned out to be 383 nM. In assay [4], the inhibition entry was “inactive”. `O=C(NCCN1CC=C(c2ccc(Cl)cc2)CC1)c1ccc2ccccc2c1`: in assay [2], the inhibitory constant (Ki) was 42.5 nM. As for `O=C(NCCN1CC=C(c2ccc(Cl)cc2)CC1)c1cnc2ccccc2n1`, the Ki in assay [2] came to 9.3 nM. For `O=C(NCCN1CCN(c2cc(F)cc(F)c2)CC1)c1cnc2ccccc2n1`, the Ki in assay [2] turned out to be 11.1 nM. Also, the 50% inhibitory concentration (IC50) in assay [3] worked out at 1140 nM. Further, the inhibition entry in assay [4] is “inactive”. As for `Cc1cc(C)cc(N2CCN(CCNC(=O)c3ccc4ccccc4c3)CC2)c1`, the Ki in assay [2] was 21 nM. The same measure, in the same setting: for `O=C(NCCN1CCN(c2ccc(F)cc2)CC1)c1cnc2ccccc2n1` the value was 63.3 nM. As to `O=C(NCCN1CC=C(c2ccccc2)CC1)c1cnc2ccccc2n1`, in assay [2], the Ki worked out at 3.76 nM. For the same molecule, the IC50 in assay [3] was 460 nM. Besides, in assay [4], the inhibition result is “inactive”. In the case of `Cc1cc(C)cc(C2=CCN(CCN3C(=O)c4ccccc4C3=O)CC2)c1`, in assay [2], the inhibition constant Ki stood at 105 nM. `O=C(NCCN1CCN(c2ccc(Cl)cc2)CC1)c1ccc2ccccc2c1`: the inhibitory constant (Ki) in assay [2] was 50.7 nM. The same measure, in the same setting: for `O=C(NCCN1CC=C(c2ccccc2)CC1)c1ccc2ccccc2c1` the value was 6.1 nM; for `Cc1ccc(C2=CCN(CCNC(=O)c3cnc4ccccc4n3)CC2)cc1`, 7.55 nM; for `O=C(NCCN1CCN(c2cc(F)cc(F)c2)CC1)c1ccc2ccccc2c1`, 28.9 nM. As for `O=C(NCCN1CCN(c2ccc(F)cc2)CC1)c1ccc2ccccc2c1`, the inhibitory constant (Ki) in assay [2] was found to be 54.3 nM.

As to `O=C(NCCN1CC=C(c2cc(F)cc(F)c2)CC1)c1cnc2ccccc2n1`, in assay [2], the inhibition constant Ki was 2.62 nM. Also, in assay [3], the IC50 is 95 nM. For the same molecule, the inhibition result in assay [4] was “inactive”. Take `O=C(NCCN1CC=C(c2ccc(F)cc2)CC1)c1ccc2ccccc2c1`: the Ki in assay [2] worked out at 33.5 nM. As to `O=C1c2ccccc2C(=O)N1CCN1CC=C(c2ccc(Cl)cc2)CC1`, the Ki in assay [2] was 631 nM. For `Cc1ccc(C2=CCN(CCN3C(=O)c4ccccc4C3=O)CC2)cc1`, in assay [1], the Activity stood at 80%. As for `O=C1c2ccccc2C(=O)N1CCN1CCN(c2ccc(F)cc2)CC1`, the Activity in assay [1] was determined as 80.4%.

As for `O=C(NCCN1CCN(c2ccccc2)CC1)c1ccc2ccccc2c1`, in assay [2], the Ki stood at 24.7 nM. In the case of `O=C1c2ccccc2C(=O)N1CCN1CC=C(c2ccccc2)CC1`, the inhibitory constant (Ki) in assay [2] was found to be 706 nM.

`O=C(NCCN1CC=C(c2cc(F)cc(F)c2)CC1)c1ccc2ccccc2c1`: the Ki in assay [2] is 7.29 nM. With `O=C1c2ccccc2C(=O)N1CCN1CCN(c2cc(F)cc(F)c2)CC1`, in assay [1], the Activity is 79.6%. Regarding `Cc1ccc(N2CCN(CCN3C(=O)c4ccccc4C3=O)CC2)cc1`, the Activity in assay [1] amounted to 97%.

Take `Cc1ccc(N2CCN(CCNC(=O)c3cnc4ccccc4n3)CC2)cc1`: the inhibitory constant (Ki) in assay [2] turned out to be 27.3 nM.

As to `O=C1c2ccccc2C(=O)N1CCN1CCN(c2ccc(Cl)cc2)CC1`, in assay [1], the Activity was 97.4%. Still for that read-out and setting: next, `O=C1c2ccccc2C(=O)N1CCN1CC=C(c2ccc(F)cc2)CC1`: 76.8%.

As for `Cc1ccc(C2=CCN(CCNC(=O)c3ccc4ccccc4c3)CC2)cc1`, in assay [2], the Ki was found to be 31.6 nM. With `Cc1ccc(N2CCN(CCNC(=O)c3ccc4ccccc4c3)CC2)cc1`, in assay [2], the inhibition constant Ki worked out at 221 nM. With `O=C(NCCN1CC=C(c2ccc(F)cc2)CC1)c1cnc2ccccc2n1`, in assay [2], the Ki stood at 14 nM.

Take `Cc1cc(C)cc(C2=CCN(CCNC(=O)c3ccc4ccccc4c3)CC2)c1`: in assay [2], the Ki worked out at 8.06 nM. Still for that read-out and setting: for `O=C1c2ccccc2C(=O)N1CCN1CC=C(c2cc(F)cc(F)c2)CC1` the value was 425 nM. Regarding `Cc1cc(C)cc(C2=CCN(CCNC(=O)c3cnc4ccccc4n3)CC2)c1`, in assay [2], the Ki worked out at 1.1 nM. Besides, the half-maximal inhibitory concentration (IC50) in assay [3] was 172 nM. The inhibition result in assay [4] was “inactive”. In the case of `Cc1cc(C)cc(N2CCN(CCN3C(=O)c4ccccc4C3=O)CC2)c1`, the Ki in assay [2] was determined as 496 nM. With `O=C(NCCN1CCN(c2ccc(Cl)cc2)CC1)c1cnc2ccccc2n1`, the inhibition constant Ki in assay [2] worked out at 27 nM.
